Where a name gives a salt, the structure may show the parent alone. Read-outs that look alike come from different tables or passages of the source. Blank lines part the entries; values can stand above or below the compound they belong to.
How the values were obtained:
HepG2 cells = assay: Effect of compounds on cholesterol (CL) and fatty acid (FA) synthesis in HepG2 cells; assay type: cell-based; details: Homo sapiens; for activity at 1000 µM: Conc. 1000 μM; for activity at 30 µM: Conc. 30 μM; for activity at 3 µM: Conc. 3 μM; for activity at 10 µM: Conc. 10 μM
Protocol: 2. Measurement of effect of compounds on cholesterol (CL) and fatty acid (FA) synthesis in HepG2 Cells HepG2 cells were cultured in 24-well cell culture plates in DMEM (Dulbecco's Modified Eagle's Medium) containing Hepes (20 mM), bicarbonate (10 mM), glutamine (2 mM) and foetal calf serum (10% w/v). Once the cells had grown to between 80% and 90% confluence, the medium was replaced by DMEM without the addition of foetal calf serum and the cells incubated overnight. The rates of cholesterol and fatty acid synthesis were then measured by the addition of ^3 H2 O, to a specific radioactivity of 71 mCi/mmol, for the final 90 min of the incubation. Vehicle or test compound were added to the medium either 1.5 or 14.5 hr prior to the addition of ^3 H2 O to give the final desired concentration. Incubations were terminated and the rates of cholesterol and fatty acid synthesis determined from the amounts of ^3 H incorporated into cellular cholesterol and fatty acids as described previously (Berkhout et al.; Biochem J., 1990, 272, 181).

rat ATP citrate lyase = molecular target: T1, rat ATP citrate lyase (Rattus norvegicus, UniProt P16638); assay: Assay of ATP Citrate lyase in the presence of inhibitors (rat enzyme); assay type: biochemical; details: 100 μM citrate, pH 8.0, 25° C.
T1 construct: prior to removal of the livers; ATP Citrate lyase was prepared according to the method of Wraight et al; from tissue; host or cells: liver of male Wistar rats (fasted, then fed a high carbohydrate diet)
T1 sequence (P16638 1-1100): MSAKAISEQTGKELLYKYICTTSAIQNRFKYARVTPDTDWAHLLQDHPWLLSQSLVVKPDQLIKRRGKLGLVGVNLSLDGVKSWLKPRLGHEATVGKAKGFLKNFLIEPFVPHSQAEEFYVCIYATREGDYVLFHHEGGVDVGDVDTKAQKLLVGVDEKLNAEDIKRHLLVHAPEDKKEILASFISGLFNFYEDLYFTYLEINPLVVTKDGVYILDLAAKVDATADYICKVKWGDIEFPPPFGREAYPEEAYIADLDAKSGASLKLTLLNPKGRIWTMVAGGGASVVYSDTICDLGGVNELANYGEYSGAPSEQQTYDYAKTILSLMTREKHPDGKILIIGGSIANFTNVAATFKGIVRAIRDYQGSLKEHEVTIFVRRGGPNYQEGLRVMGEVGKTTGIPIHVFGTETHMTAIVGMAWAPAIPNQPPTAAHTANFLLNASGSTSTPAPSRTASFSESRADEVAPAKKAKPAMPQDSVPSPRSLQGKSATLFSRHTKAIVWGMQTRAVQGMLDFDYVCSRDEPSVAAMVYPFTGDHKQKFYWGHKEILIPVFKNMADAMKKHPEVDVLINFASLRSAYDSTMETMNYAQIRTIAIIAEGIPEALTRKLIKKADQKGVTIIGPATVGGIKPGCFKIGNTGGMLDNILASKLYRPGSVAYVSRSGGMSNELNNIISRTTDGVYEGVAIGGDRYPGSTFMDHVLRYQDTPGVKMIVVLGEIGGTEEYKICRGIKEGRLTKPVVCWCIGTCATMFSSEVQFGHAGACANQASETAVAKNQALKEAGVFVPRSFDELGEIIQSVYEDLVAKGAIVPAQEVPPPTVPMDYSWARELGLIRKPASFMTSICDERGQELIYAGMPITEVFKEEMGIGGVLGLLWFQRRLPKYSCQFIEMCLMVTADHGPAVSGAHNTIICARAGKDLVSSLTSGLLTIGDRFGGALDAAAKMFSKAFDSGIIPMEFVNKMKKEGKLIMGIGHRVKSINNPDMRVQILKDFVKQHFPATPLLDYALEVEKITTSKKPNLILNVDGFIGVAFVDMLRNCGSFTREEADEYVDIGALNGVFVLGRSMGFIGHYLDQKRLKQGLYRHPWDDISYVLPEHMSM
Protocol: 1. RAT ATP CITRATE LYASE (ACL) ASSAY
Purification of ATP Citrate lyase-human and rat enzymes
Male Wistar rats were fasted for 24 h, then fed on a high carbohydrate diet for 72 h prior to removal of the livers. ATP Citrate lyase was prepared according to the method of Wraight et al (Anal. Biochem., 1985, 144, 604-609) with modifications for large scale purification according to Wells (Eur. J. Biochem., 1991, 199, 163-168). Protein obtained by this method was pure as judged by SDS-PAGE.
Assay of ATP Citrate lyase in the presence of inhibitors
(§1) ATP Citrate lyase activity was assayed at 25° C. by reducing the oxaloacetate produced with malate dehydrogenase and NADH while monitoring at 340 nm using a Beckman DU50 spectrophotometer (according to the method of Linnet al (J. Biol. Chem., 1979, 254, 1691-1698)). Briefly, ATP citrate lyase (human or rat) was added to a 1 ml cuvette containing 50 mM Tris/HCl, pH=8.0, 0.2 mM NADH, 10 mM MgCl2, 10 mM KCl, 5 mM ATP, 200 μM coenzyme A, 10 mM dithiothreitol and malate dehydrogenase. An aqueous solution of inhibitor was added (for inhibitors which were insoluble in water, a stock solution was prepared in DMSO. However the final DMSO concentration in the cuvette was not allowed to exceed 1%.). Finally, tripotassium citrate was added to 100 μM final. This is Km for citrate (Wells et al (Eur. J. Biochem., 1992, 204, 249-255) and Houston et al (Biochim. Biophys. Acta, 1985, 844, 233-239)). Data analysis was performed using the curve fitting package Enzfitter (Elsevier Biosoft). For competitive inhibitors data was fitted to the equation
where v is the observed rate and I is the concentration of inhibitor added. Thus the dissociation constant Ki for the inhibitor could be found.

[1] = tested on: Sprague Dawley rat plasma cholesterol and triglyceride levels; assay: Measurement of hyperlipidaemic activity in rats: plasma cholesterol and triglyceride levels; assay type: in vivo; details: in diet at 0.125% (w:w) for 7 days
Protocol: (§2) 3. Measurement of hyperlipidaemic activity in rats and dogs
The compound of example 2 was administered to Spmgue Dawley rats in their diet at a concentration of 0.125% (w:w) for 7 days.

[2] = tested on: Beagle dog plasma cholesterol and triglyceride levels; assay: Measurement of hyperlipidaemic activity in dogs: plasma cholesterol and triglyceride levels; assay type: in vivo; details: male Beagle dogs; 25 mg/kg/day for 2 weeks
Protocol: as §2
25 (b) Dog The compound of example 2 was administered to male Beagle dogs at a level of 25 mg/kg/day for 2 weeks.

human ATP citrate lyase = molecular target: T2, human ATP citrate lyase (Homo sapiens, UniProt P53396); assay: Assay of ATP Citrate lyase in the presence of inhibitors (human enzyme); assay type: biochemical; details: 100 μM citrate, pH 8.0, 25° C.
T2 construct: made in house
T2 sequence (P53396 1-1101): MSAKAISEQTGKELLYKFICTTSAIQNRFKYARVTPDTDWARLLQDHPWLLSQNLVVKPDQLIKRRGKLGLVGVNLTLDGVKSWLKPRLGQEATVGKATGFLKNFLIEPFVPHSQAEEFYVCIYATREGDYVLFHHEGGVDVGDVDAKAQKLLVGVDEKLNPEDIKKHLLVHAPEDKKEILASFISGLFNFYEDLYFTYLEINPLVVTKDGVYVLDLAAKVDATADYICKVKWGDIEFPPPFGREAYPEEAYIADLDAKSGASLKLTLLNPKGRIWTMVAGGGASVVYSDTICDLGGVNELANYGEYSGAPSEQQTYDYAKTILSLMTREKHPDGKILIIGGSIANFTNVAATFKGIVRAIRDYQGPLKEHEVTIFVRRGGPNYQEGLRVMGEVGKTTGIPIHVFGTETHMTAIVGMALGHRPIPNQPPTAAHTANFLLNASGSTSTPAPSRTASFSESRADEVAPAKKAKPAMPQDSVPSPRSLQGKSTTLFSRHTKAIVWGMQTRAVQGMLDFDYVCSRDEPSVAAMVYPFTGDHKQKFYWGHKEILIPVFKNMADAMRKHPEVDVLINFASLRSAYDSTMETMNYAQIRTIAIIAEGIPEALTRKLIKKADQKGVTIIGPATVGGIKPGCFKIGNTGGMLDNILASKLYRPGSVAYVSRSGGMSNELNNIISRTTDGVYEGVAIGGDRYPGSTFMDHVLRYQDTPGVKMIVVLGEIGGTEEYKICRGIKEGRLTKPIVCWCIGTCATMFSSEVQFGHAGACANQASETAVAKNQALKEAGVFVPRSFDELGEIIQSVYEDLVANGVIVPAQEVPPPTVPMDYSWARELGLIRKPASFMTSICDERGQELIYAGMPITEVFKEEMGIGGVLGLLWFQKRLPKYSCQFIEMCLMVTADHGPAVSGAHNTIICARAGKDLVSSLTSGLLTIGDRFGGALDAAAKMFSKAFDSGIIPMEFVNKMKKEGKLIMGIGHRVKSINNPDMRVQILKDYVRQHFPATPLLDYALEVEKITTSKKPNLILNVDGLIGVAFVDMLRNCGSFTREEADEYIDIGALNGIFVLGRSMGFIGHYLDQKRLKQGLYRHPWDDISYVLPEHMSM
Protocol: as §1, with “Purification of ATP Citrate lyase-human and rat enzymes (ii) human enzyme Human ATP citrate lyase was prepared as described in European Journal of Biochemistry, 1992, 204, 491-99, with modifications for large scale purification according to Wells as referred to above. Protein obtained by this method was pure as judged by SDS-PAGE. Assay of ATP Citrate lyase in the presence of inhibitors ATP Citrate” for “ATP Citrate”, “method of […] al (J.” for “method of Linnet al (J.”, “(Elsevier Biosoft). […]” for “(Elsevier Biosoft). For competitive inhibitors data was fitted to the equation”

Ki (rat ATP citrate lyase): 800 nM
Structure (SMILES): O=C(O)C[C@](O)(C[C@@H](O)CCCCCCc1ccc(Cl)cc1Cl)C(=O)O (relative stereo) [Example 1, ±(3R*, 5S*) 3-Carboxy-11-(2,4-dichlorophenyl)-3,5-dihydroxyundecanoic acid, disodium salt]
activity at 1000 µM (HepG2 cells; read-out: CL synthesis): 80 ± 6%
activity at 1000 µM (HepG2 cells; read-out: FA synthesis): 123 ± 3%

activity against ATP citrate lyase (rat) (rat ATP citrate lyase): inactive
Structure (SMILES): O=C(O)C[C@]1(O)C[C@H](CCCCCCc2ccc(Cl)cc2Cl)OC1=O (relative stereo) [Example 2, ±(3R*, 5S*) 3-Carboxymethyl-5-[6-(2,4-dichlorophenyl)hexyl]3-hydroxytetrahydrofuran-2-one]
reduction of plasma cholesterol levels [1]: 30%
reduction of plasma triglyceride levels [1]: 64%
activity at 30 µM (HepG2 cells; read-out: CL synthesis): 8 ± 3%
activity at 30 µM (HepG2 cells; read-out: FA synthesis): 32 ± 3%
reduction of plasma cholesterol levels [2]: 20-25%
reduction of plasma triglyceride levels [2]: 20-25%

Structure (SMILES): O=C(O)[C@H](O)[C@@]1(O)C[C@@H](CCCCCCc2ccc(Cl)cc2Cl)OC1=O (relative stereo) [Example 11, ±(1'R*,3S*,5R*) 3-[Carboxy(hydroxy)methyl]-5-[6-(2,4-dichlorophenyl)hexyl]-3-hydroxytetrahydrofuran-2-one]
activity at 3 µM (HepG2 cells; read-out: CL synthesis): 69 ± 13%
activity at 3 µM (HepG2 cells; read-out: FA synthesis): 74 ± 11%
activity at 10 µM (HepG2 cells; read-out: CL synthesis): 86 ± 29%
activity at 10 µM (HepG2 cells; read-out: FA synthesis): 76 ± 13%

Ki (human ATP citrate lyase): 760 nM
Ki (rat ATP citrate lyase): 700 nM
Structure (SMILES): O=C(O)C[C@](O)(C[C@@H](O)CCCCCCc1ccc(Cl)cc1Cl)C(=O)O (single isomer, unassigned) [Example 18, (+) (3R*,5S*) 3-Carboxy-11-(2,4-dichlorophenyl)-3,5-dihydroxyundecanoic acid, disodium salt]

Ki (human ATP citrate lyase): 690 nM
Ki (rat ATP citrate lyase): 700 nM
Structure (SMILES): O=C(O)C[C@](O)(C[C@@H](O)CCCCCCc1ccc(Cl)cc1Cl)C(=O)O (single isomer, unassigned) [Example 20, (-) (3R*,5S*) 3-Carboxy-11-(2 4-dichlorophenyl)-3 5-dihydroxyundecanoic acid, disodium salt]

— US5447954A, “Phenylderivate as inhibitors of ATP citrate lyase” (SmithKline Beecham p.l.c., priority 1992, dated 1995)
